Measurements as given in PMC4620497 (Scientific Reports, 2015).

What was measured:
[1] = biological target: PAK1 (Homo sapiens, UniProt Q13153); design: method as in earlier work; details: Table S1; cited from earlier work
[2] = biological target: T1, MAP4K5 (Homo sapiens, UniProt Q9Y4K4); experiment: KINOMEscan panel screen; assay type: binding; details: read-out: Percent Control(%)
T1 construct: purchased DiscoveRx KINOMEscan (Ambit Biosciences)

[3] = biological target: T2, MYO3A (Homo sapiens, UniProt Q8NEV4); experiment: KINOMEscan panel screen; assay type: binding; details: read-out: Percent Control(%)
T2 construct: purchased DiscoveRx KINOMEscan (Ambit Biosciences)

[4] = biological target: T3, EGFR(L747-E749del, A750P) (Homo sapiens, UniProt P00533, A750P/DEL747-749); experiment: KINOMEscan panel screen; assay type: binding; details: read-out: Percent Control(%)
T3 construct: purchased DiscoveRx KINOMEscan (Ambit Biosciences)

[5] = biological target: T4, ROS1 (Homo sapiens, UniProt P08922); experiment: KINOMEscan panel screen; assay type: binding; details: read-out: Percent Control(%)
T4 construct: purchased DiscoveRx KINOMEscan (Ambit Biosciences)

[6] = biological target: T5, FLT3(N841I) (Homo sapiens, UniProt P36888, N841I); experiment: KINOMEscan panel screen; assay type: binding; details: read-out: Percent Control(%)
T5 construct: purchased DiscoveRx KINOMEscan (Ambit Biosciences)

[7] = biological target: T6, PCTK1 (Homo sapiens, UniProt Q00536); experiment: KINOMEscan panel screen; assay type: binding; details: read-out: Percent Control(%)
T6 construct: purchased DiscoveRx KINOMEscan (Ambit Biosciences)

[8] = test system: MV4-11 tumor xenograft; experiment: MV4-11 tumor xenograft model; assay type: in vivo
Protocol: Female 5- to 6-week-old NOD-SCID mice (Beijing HFK Bioscience) were housed in a sterile environment and fed a standard diet ad libitum. […] A 100- μl aliquot of the cell suspension was injected subcutaneously into the hind flank of each mouse to establish the xenograft model. […] The tumor volume was calculated using the following formula: volume = a × b^2/2 (a, long diameter; b, short diameter).
Paraffin-embedded tumors were subjected to immunostaining with Ki67 (Thermo Fisher), transferase-mediated dUTP nick-end labeling (TUNEL, Thermo Fisher). The representative images were taken on a LEICA DM 2500 microscope with a LEICA DFC425 C camera. Image acquisition software: LAS V3.7.
(a) MV4-11 cells (10^7 cells/mouse) were s.c. inoculated into NOD-SCID mice. […] The tumor volume and body weight were measured every 3 days during the treatment. The mean values ± SD are shown. […] Ki67 and TUNEL were detected with immunohistochemical. Representative images were shown. […] Tumors were harvested at the indicated time points, and the FLT3 signaling pathway was detected using western blot assays. The experiments were performed on three groups of mice. The results of the other two groups are given in Supplementary Data (Supplementary Fig. S8). […] The results shown in the histogram are the statistic data of three groups of mice. ns, not statistically significant, *P < 0.05, **P < 0.01. (e) The same harvested tumors were detected using real-time qPCR assays to test the expression of AXIN2 and NKD1 (the target genes of Wnt/β-catenin pathway). All results were normalized to the level of GAPDH (mean ± SEM from triplicate groups). ns, not statistically significant, *P < 0.05, **P < 0.01. (f) Kaplan-Meier plot of survival. […] The plasma concentrations were determined using liquid–liquid extraction followed by high-performance liquid chromatography (HPLC) with tandem mass spectrometric detection.

[9] = biological target: T7, KIT (Homo sapiens, UniProt P10721); experiment: KINOMEscan kinase binding assay (Kd)
T7 construct: DNA tag (qPCR read-out); purchased Ambit Biosciences (KINOMEscan service)

[10] = biological target: T8, CTK (Homo sapiens, UniProt P42679); experiment: KINOMEscan panel screen; assay type: binding; details: read-out: Percent Control(%)
T8 construct: purchased DiscoveRx KINOMEscan (Ambit Biosciences)

[11] = biological target: T9, NEK4 (Homo sapiens, UniProt P51957); experiment: KINOMEscan panel screen; assay type: binding; details: read-out: Percent Control(%)
T9 construct: purchased DiscoveRx KINOMEscan (Ambit Biosciences)

[12] = biological target: T10, IRAK4 (Homo sapiens, UniProt Q9NWZ3); experiment: KINOMEscan panel screen; assay type: binding; details: read-out: Percent Control(%)
T10 construct: purchased DiscoveRx KINOMEscan (Ambit Biosciences)

[13] = biological target: T11, LRRK2 (Homo sapiens, UniProt Q5S007); experiment: KINOMEscan panel screen; assay type: binding; details: read-out: Percent Control(%)
T11 construct: purchased DiscoveRx KINOMEscan (Ambit Biosciences)

[14] = biological target: T12, PRKD2 (Homo sapiens, UniProt Q9BZL6); experiment: KINOMEscan panel screen; assay type: binding; details: read-out: Percent Control(%)
T12 construct: purchased DiscoveRx KINOMEscan (Ambit Biosciences)

[15] = biological target: T13, MET(Y1235D) (Homo sapiens, UniProt P08581, Y1235D); experiment: KINOMEscan panel screen; assay type: binding; details: read-out: Percent Control(%)
T13 construct: purchased DiscoveRx KINOMEscan (Ambit Biosciences)
T13 sequence (P08581 1078-1345 Y1235D limits assumed): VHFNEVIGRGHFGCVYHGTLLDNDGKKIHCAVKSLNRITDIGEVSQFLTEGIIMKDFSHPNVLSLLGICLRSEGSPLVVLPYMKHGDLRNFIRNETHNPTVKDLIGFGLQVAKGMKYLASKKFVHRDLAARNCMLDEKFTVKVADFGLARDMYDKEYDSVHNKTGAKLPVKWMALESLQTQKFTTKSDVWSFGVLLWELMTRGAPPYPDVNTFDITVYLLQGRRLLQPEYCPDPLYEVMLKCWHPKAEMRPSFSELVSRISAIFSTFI

T3 sequence (P00533 with tags, fused parts or gaps DEL747-749/A750P limits assumed): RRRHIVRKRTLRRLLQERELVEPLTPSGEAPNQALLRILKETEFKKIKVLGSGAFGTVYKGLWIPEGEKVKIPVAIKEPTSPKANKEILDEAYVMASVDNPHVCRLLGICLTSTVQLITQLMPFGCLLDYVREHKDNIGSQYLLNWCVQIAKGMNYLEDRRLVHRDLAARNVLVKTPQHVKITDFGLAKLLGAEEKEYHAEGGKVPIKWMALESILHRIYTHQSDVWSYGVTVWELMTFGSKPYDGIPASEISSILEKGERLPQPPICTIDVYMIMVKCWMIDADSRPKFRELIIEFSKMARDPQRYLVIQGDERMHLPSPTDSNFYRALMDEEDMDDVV
T8 sequence (P42679 whole entry): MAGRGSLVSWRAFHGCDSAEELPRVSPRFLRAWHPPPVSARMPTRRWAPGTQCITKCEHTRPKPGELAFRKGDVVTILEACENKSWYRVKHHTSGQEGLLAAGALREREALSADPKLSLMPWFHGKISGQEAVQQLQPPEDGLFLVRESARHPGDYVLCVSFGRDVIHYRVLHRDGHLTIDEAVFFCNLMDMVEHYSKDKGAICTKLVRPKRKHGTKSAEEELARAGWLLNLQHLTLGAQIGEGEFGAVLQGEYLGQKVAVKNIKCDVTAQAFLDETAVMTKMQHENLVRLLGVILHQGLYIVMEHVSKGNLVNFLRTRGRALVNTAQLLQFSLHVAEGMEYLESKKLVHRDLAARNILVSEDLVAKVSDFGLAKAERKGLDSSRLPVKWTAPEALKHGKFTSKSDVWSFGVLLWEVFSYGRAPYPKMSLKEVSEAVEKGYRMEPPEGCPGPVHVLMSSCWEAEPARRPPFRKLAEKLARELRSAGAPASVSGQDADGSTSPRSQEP
T2 sequence (Q8NEV4 whole entry): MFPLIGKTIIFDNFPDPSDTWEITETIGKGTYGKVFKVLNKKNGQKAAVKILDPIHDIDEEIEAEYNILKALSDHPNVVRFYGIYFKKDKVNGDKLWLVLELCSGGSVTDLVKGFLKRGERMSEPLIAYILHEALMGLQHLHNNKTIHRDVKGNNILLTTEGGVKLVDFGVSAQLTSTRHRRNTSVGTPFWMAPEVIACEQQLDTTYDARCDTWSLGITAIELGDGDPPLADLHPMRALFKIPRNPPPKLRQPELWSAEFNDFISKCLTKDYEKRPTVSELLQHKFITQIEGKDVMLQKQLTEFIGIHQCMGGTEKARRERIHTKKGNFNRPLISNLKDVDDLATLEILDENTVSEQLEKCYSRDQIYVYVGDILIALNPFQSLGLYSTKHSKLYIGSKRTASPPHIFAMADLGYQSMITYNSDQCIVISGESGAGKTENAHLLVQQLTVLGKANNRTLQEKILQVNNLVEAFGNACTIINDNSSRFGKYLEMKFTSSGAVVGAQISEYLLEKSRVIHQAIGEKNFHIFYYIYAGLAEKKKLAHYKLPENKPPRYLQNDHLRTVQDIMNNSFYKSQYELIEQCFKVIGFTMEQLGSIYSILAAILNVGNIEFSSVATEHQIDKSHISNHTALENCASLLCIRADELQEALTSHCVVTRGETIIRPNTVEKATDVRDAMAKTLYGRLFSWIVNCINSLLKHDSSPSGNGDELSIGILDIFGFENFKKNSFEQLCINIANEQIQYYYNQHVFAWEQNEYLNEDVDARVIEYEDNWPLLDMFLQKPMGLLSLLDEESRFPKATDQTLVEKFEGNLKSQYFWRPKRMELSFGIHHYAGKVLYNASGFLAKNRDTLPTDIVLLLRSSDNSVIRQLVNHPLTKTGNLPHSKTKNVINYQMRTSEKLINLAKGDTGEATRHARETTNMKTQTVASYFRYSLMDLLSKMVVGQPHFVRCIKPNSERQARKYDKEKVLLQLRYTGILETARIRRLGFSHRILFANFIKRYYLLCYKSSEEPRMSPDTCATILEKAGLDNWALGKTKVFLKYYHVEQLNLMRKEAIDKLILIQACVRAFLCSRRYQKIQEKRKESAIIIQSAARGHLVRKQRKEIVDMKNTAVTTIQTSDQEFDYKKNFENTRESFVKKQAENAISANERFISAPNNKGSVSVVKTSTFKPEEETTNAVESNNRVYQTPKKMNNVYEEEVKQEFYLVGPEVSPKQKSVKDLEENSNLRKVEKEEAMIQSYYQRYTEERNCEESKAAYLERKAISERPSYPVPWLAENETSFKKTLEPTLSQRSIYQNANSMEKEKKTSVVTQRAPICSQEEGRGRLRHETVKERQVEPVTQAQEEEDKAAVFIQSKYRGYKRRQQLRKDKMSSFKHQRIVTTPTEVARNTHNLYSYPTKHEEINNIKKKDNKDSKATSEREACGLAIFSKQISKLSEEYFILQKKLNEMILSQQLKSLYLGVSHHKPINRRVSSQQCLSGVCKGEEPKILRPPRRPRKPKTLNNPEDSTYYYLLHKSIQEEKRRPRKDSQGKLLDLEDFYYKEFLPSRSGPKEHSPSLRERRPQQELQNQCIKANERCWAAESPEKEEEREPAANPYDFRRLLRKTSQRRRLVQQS
T9 sequence (P51957 whole entry): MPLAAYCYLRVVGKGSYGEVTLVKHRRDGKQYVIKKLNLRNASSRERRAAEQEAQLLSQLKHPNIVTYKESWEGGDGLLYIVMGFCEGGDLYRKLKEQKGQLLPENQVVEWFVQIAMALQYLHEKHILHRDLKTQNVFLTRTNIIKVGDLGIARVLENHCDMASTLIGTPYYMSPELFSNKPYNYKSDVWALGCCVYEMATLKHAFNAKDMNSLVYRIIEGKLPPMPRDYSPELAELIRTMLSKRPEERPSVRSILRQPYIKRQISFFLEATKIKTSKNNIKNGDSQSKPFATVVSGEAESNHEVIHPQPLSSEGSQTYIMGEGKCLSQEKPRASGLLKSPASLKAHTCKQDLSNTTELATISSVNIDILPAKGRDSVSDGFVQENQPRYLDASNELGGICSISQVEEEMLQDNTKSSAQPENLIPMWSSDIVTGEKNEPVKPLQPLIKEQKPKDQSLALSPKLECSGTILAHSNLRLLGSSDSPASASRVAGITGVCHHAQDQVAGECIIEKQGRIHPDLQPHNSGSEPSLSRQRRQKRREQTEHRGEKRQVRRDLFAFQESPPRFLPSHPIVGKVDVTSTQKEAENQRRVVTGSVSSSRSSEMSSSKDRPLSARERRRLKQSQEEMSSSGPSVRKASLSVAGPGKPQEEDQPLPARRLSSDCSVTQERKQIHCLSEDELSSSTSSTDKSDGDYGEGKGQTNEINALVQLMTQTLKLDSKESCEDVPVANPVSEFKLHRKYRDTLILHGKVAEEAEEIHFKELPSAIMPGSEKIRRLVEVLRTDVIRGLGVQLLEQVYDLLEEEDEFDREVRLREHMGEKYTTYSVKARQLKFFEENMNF
T1 sequence (Q9Y4K4 whole entry): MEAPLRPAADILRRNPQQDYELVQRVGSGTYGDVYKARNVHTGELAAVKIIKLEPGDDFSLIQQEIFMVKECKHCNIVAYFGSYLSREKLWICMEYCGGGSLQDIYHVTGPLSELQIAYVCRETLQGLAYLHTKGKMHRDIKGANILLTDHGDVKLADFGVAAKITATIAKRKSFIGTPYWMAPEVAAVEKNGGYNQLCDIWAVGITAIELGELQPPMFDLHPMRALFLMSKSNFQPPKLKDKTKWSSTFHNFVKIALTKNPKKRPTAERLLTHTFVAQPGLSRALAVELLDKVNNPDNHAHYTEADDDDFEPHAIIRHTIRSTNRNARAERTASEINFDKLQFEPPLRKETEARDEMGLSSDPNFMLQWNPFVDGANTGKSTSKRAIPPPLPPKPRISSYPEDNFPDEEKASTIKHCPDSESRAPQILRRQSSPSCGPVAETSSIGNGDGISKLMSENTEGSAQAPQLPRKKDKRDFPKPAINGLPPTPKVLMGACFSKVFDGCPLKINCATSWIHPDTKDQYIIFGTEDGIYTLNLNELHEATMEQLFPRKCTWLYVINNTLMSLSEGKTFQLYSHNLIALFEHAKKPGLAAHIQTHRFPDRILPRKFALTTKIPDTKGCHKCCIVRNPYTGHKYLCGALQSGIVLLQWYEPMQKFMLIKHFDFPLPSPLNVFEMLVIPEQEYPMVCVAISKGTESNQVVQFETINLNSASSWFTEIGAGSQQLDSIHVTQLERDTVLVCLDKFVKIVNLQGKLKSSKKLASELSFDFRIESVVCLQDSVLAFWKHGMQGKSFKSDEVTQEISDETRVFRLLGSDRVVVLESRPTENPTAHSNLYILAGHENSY
T10 sequence (Q9NWZ3 whole entry): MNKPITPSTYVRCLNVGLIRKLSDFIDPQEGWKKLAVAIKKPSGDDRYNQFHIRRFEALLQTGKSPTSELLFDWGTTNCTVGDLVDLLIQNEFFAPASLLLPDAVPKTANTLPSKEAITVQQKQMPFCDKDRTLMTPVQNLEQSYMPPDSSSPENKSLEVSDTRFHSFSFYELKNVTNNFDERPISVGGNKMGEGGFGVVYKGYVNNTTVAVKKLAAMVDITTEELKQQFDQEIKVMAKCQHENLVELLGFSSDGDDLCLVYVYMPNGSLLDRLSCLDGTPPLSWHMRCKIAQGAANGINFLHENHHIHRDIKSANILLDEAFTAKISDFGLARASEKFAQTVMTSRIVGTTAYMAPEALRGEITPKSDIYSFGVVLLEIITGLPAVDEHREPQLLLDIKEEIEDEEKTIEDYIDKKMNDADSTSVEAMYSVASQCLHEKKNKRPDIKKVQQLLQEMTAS

| SMILES | IC50 [1] | remaining binding at 10 µM [2] | remaining binding at 10 µM [3] | remaining binding at 10 µM [4] | remaining binding at 10 µM [5] | remaining binding at 10 µM [6] | remaining binding at 10 µM [7] | tumor inhibition rate ([8]; 1 mg/kg/d orally once per day for 21 days) | tumor response ([8]; 3 mg/kg/d orally for 8 days) | toxicity in xenograft mice ([8]; 10 mg/kg/d or 3 mg/kg/d orally) | tumor response ([8]; 10 mg/kg/d orally for 3 days) | Ki67-positive cells in tumors compared with control group ([8]; immunohistochemistry) | percentage of TUNEL-positive cells in tumors compared with vehicle ([8]; immunohistochemistry) | Kd [9] | remaining binding at 10 µM [10] | remaining binding at 10 µM [11] | remaining binding at 10 µM [12] | remaining binding at 10 µM [13] | remaining binding at 10 µM [14] | remaining binding at 10 µM [15] |
| --- | --- | --- | --- | --- | --- | --- | --- | --- | --- | --- | --- | --- | --- | --- | --- | --- | --- | --- | --- | --- |
| O=C(Nc1ccc(Oc2ncnc3[nH]ncc23)cc1)Nc1ccc(Cl)c(C(F)(F)F)c1 [Compound 1, 1-(4-(1H-pyrazolo[3,4-d]pyrimidin-4-yloxy)phenyl)-3-(4-chloro-3-(trifluoromethyl)phenyl)urea] | > 10000 nM |  |  |  |  |  |  |  |  |  |  |  |  |  |  |  |  |  |  |  |
| CC(C)(C)c1cc(NC(=O)Nc2ccc(Oc3ncnc4[nH]ncc34)c(F)c2)no1 [SKLB-677, 1-(4-(1H-pyrazolo[3,4-d]pyrimidin-4-yloxy)-3-fluorophenyl)-3-(5-tert-butylisoxazol-3-yl)urea] |  | 2% | 11% | 19% | 0.1% | 0% | 0.2% | 66% | complete tumor regression | without obvious toxicity | complete tumor regression | evidently fewer | increased | 3.1 nM | 37% | 38% | 100% | 52% | 28% | 5.4% |
